Target: T1, GtCPES (Guillardia theta, UniProt L1JFC7, M146A)
T1 sequence (L1JFC7 80-253 M146A): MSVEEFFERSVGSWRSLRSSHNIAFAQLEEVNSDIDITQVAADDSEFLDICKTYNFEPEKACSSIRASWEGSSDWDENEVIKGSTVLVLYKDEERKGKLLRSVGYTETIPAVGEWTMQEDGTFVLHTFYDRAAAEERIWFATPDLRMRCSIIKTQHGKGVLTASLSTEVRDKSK
Assay: UV-Vis absorbance titration
Format: binding

C/C=C1/C(=C/c2[nH]c(/C=C3N=C(/C=C4\NC(=O)C(CC)=C4C)C(C)=C\3CCC(=O)O)c(CCC(=O)O)c2C)NC(=O)[C@@H]1C [3(E)-PCB]
Kd: 7 ± 0.4 µM

Source: doi:10.1101/2020.03.31.018853v1 (biorxiv, 2020)
